Measured values reported in PubChem BioAssay (NCI).
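Cells were grown in 96-well plates and exposed to each compound for 48 hours at five concentrations; endpoints were interpolated linearly between bracketing concentrations, or set to the highest concentration if not reached. Abbreviation: GI50, concentration required for 50% inhibition of growth. TGI is the concentration that stops growth completely.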

Legend:
Assay in all cases: NCI anticancer screen, dose series, 48 h
[1] = test system: HCT-116 colon
[2] = test system: HT29 colon
[3] = test system: MALME-3M melanoma
[4] = test system: MCF7 breast
[5] = test system: NCI-H460 lung
[6] = test system: SK-MEL-28 melanoma
[7] = test system: SK-OV-3 ovarian
[8] = test system: UACC-257 melanoma
[9] = test system: UO-31 renal
[10] = test system: A498 renal

SMILES	TGI [1] [µM]	TGI [2] [µM]	TGI [3] [µM]	TGI [4] [µM]	TGI [5] [µM]	TGI [6] [µM]	TGI [7] [µM]	TGI [8] [µM]	TGI [9] [µM]	TGI [10] [µM]	GI50 [2] [µM]	GI50 [5] [µM]	GI50 [7] [µM]	GI50 [9] [µM]
CCOC(=O)C1(C(=O)OCC)[C@H](c2ccccc2)C2=NO[C@@H]3CCC[C@H]1[C@H]23	> 100	> 100	> 100	> 100	> 100	> 100	> 100	> 100	> 100	–	–	–	–	–
CN(C)CCNC(=O)c1ccc(NCCCN(C)CCCNc2ccc3c(=O)n(CCN(C)C)c(=O)n4c5ccccc5c(=O)c2c34)c2c(=O)c3ccccc3[nH]c12	0.0704	0.161	0.453	0.344	0.0296	1.34	0.411	0.718	0.301	0.415	–	–	–	–
C[C@@H](O)C(=O)N1[C@@H]2CC3CC[C@]2(CS1(=O)=O)C3(C)C	> 100	> 100	–	> 100	> 100	> 100	> 100	> 100	> 100	–	–	–	–	–
Clc1ccc(N2N=C(c3cccc(Nc4ccncc4)c3)CC2c2ccc3c(c2)OCO3)cc1 (stereo unspecified)	–	6.55	–	–	3.29	–	24.1	–	2.86	–	2.44	1.77	4.31	1.36
CN(C)c1nc(N(C)C)nc(N(C)C23CC4CC(CC(C4)C2)C3)n1	58.8	–	95.7	> 100	> 100	> 100	> 100	> 100	> 100	> 100	–	–	–	–
Clc1ccc(Cc2nc3ccccc3nc2-c2cccc(Br)c2)cc1	3.5	6.13	22.5	11.3	42.2	–	31.2	7.7	3.38	–	–	–	–	–
Cc1cc(=O)n2nc(SCc3ccccc3)sc2n1	> 100	> 100	> 100	> 100	> 100	> 100	> 100	–	67.5	> 100	–	–	–	–
Nc1cccc2c1C(=O)c1cccc(N)c1C2=O	> 100	> 100	> 100	–	> 100	> 100	> 100	> 100	> 100	> 100	–	–	–	–
Cc1cc(C)c(P2C(=C(O[Si](C(C)C)(C(C)C)C(C)C)C(C)(C)C)C2(c2ccccc2)c2ccccc2)c(C)c1 (stereo unspecified)	> 100	> 100	–	> 100	> 100	> 100	> 100	> 100	> 100	> 100	–	–	–	–
CCNc1ccc2c(c1)Cc1ccccc1-2	> 100	> 100	> 100	> 100	> 100	> 100	–	> 100	> 100	> 100	–	–	–	–
COc1nc(N(C)C)nc2c1n(C)c[n+]2C	> 100	> 100	> 100	–	> 100	> 100	> 100	> 100	> 100	> 100	–	–	–	–
Cc1cc(O)c(C(C)C)cc1SC#N	–	–	35.9	31.6	33.4	33.8	37.6	38.1	–	31.9	–	–	–	–
Cc1ccccc1-n1c(C)nc2c1C(=O)c1ccccc1C2=O	> 100	> 100	41.3	–	> 100	> 100	–	> 100	> 100	> 100	–	–	–	–
COc1ccc2c(c1)C(N)=C(c1ccccc1)C2=O	> 100	> 100	> 100	> 100	> 100	> 100	> 100	> 100	–	> 100	–	–	–	–
N/N=C1/C2CN3CCN(C2)CC1(c1ccc([N+](=O)[O-])cc1)C3	> 100	> 100	> 100	> 100	–	> 100	–	> 100	> 100	> 100	–	–	–	–
COC(=O)C1CCC(=O)N1C(=O)Cc1ccc(OC)cc1 (stereo unspecified)	> 100	> 100	–	–	> 100	> 100	> 100	> 100	> 100	> 100	–	–	–	–
Cc1ccc(S(=O)(=O)NNC(=O)c2cc(C)ccc2NC(=O)C23CC4CC(CC(C4)C2)C3)cc1	> 100	> 100	80.4	> 100	> 100	–	68.5	> 100	44.9	–	–	–	–	–
N=c1oc2ccc3ccccc3c2cc1C(N)=O	> 100	> 100	–	–	> 100	> 100	> 100	> 100	–	> 100	–	–	–	–
CC1(C)OCC(C(O)C2OC(C)(C)OC2C=O)O1 (stereo unspecified)	> 100	> 100	> 100	> 100	–	> 100	> 100	> 100	> 100	> 100	–	–	–	–
